For one data set, the target named is T1, ROCK I (Homo sapiens, UniProt Q13464).
T1 construct: purchased Cyclex, Nagoya, Japan CY-1160
In words: Rho kinase activity assay (Cyclex CY-1160 kit). The conditions noted are these: for IC50: a: means of multiple experiments (N = 4), errors within 30% of the mean, b: single determinations, read-out: IC50 against ROCK I; for ROCK I activity compared in words: comparison with DL0805 or between series. It is filed as biochemical. As for the experimental part:
Briefly, the compounds at 20 μM were pre-incubated in a system wherein ROCK I (0.02 ng/μL) phosphorylates the kinase substrate’s myosin-binding subunit (MBS) pre-absorbed onto the microplate in the presence of Mg^2+ and ATP. Then, the system was washed after incubation at 30 °C for 30 min. 100 μL of horseradish peroxidase-conjugated anti-AF20 antibody was added to the wells and then incubated for 30 min at room temperature. The reaction system was then incubated with the substrate tetra-methylbenzidine (TMB), which can be catalyzed from a colorless solution to a blue solution. The absorbance was measured at a wavelength of 450 nm on a microplate reader. The color reflects the relative level of ROCK I activity. The inhibitory rates of the compounds on ROCK I were obtained from OD 450 nm and the IC50 values were calculated by nonlinear regression.

Data set [1] deals with rat aortic rings. In words: Vasorelaxant activity test, high-potassium model. The conditions noted are these: rat aortic rings constricted with high K+ (60 mmol/L); a: mean N = 6; b: single determination; -- = No activity. The source says:
(§1) Abnormalities in the Rho/ROCK signaling pathway are associated with various cardiovascular diseases, especially hypertension. The inhibition of the Rho/ROCK pathway can cause the vessels to relax. The norepinephrine (NE)- or potassium chloride (KCl)-induced model of the rat aortic ring can trigger sustained vessel contraction and is usually used to evaluate vasorelaxant activity. DL0805 has shown vasorelaxant activity. Therefore, the nine compounds with significant inhibition against ROCK I were further tested for their vasorelaxant activity in rat aortic rings in both the high-potassium and NE models (Table 3). […] The potent active compound 4b with excellent activity has been further evaluated, and further pharmacokinetic and safety evaluations are in progress.
(§2) Male Sprague-Dawley rats weighing 240–280 g (Vital River Laboratories, Beijing, China) were maintained in a 12-h light/dark cycle at 24 °C in a relative humidity of 60% room, and received food and water ad libitum. The animal care and handling were performed in accordance with the Guide for the Care and Use of Laboratory Animals published by the US National Institutes of Health and the Laboratories Institutional Animal Care and Use Committee of the Chinese Academy of Medical Science and Peking Union Medical College (ethic approval number: 00001012).
(§3) The vasorelaxant activity assay was performed as described previously. Briefly, the descending thoracic aorta was isolated after rats were euthanized by cervical dislocation. Then, the aorta was cut into ring segments (3–4 mm in length). The endothelial layer of the aorta was destroyed by gently rubbing the luminal surface with a moist cotton swab when necessary. Two stainless-steel triangles were inserted into the lumen of each ring. One triangle was fixed, and the other attached to a force transducer. Changes in isometric force were recorded on a BIOPAC polygraph (MP100WSW, Biopac Systems, Inc, Goleta, CA, USA). The rings were mounted in organ baths containing 10 mL Krebs-Henseleit (K-H) buffer with the following composition (mM): NaCl 120, KCl 4.8, MgSO4 1.4, KH2PO4 1.2, glucose 11.0, CaCl2 2.5, NaHCO3 25.0 and EDTA 0.01. The K-H buffer was continuously bubbled with 95% O2/5% CO2 at 37 °C. Rings were allowed to equilibrate for 60 min at a resting tension of 1.2 g with changes of buffer every 20 min.
(§4) After the equilibration period, the aortic rings were constricted with a high K^+ (60 mM) K-H solution to stimulate the tissue and to test its availability. Then, the rings were washed with normal K-H buffer to restore the basic tension of 1.2 g. The aortic rings were then stimulated with a high K^+ (60 mmol/L) K-H buffer ornorepinephrine (1 μM) to evaluate the vasorelaxant effects of the compounds. When the contraction reached the platform, compounds were added to the bath in batches at 5-min intervals to reach the accumulative concentrations of 1, 2, 5, 10, 25 and 50 μM. The tension of vessels was recorded and nonlinear regression was used to calculate the EC50 values.

Data set [2] relates to rat aortic rings. Nature of the data set: Vasorelaxant activity test, NE model. The conditions noted are these: rat aortic rings constricted with norepinephrine (1 μM); a: mean N = 6; b: single determination; -- = No activity.
Excerpt: as §1, §2, §3, §4

[3] abbreviates: compound concentration 20 μM, single determinations.

T1 sequence (Q13464 whole entry, species assumed): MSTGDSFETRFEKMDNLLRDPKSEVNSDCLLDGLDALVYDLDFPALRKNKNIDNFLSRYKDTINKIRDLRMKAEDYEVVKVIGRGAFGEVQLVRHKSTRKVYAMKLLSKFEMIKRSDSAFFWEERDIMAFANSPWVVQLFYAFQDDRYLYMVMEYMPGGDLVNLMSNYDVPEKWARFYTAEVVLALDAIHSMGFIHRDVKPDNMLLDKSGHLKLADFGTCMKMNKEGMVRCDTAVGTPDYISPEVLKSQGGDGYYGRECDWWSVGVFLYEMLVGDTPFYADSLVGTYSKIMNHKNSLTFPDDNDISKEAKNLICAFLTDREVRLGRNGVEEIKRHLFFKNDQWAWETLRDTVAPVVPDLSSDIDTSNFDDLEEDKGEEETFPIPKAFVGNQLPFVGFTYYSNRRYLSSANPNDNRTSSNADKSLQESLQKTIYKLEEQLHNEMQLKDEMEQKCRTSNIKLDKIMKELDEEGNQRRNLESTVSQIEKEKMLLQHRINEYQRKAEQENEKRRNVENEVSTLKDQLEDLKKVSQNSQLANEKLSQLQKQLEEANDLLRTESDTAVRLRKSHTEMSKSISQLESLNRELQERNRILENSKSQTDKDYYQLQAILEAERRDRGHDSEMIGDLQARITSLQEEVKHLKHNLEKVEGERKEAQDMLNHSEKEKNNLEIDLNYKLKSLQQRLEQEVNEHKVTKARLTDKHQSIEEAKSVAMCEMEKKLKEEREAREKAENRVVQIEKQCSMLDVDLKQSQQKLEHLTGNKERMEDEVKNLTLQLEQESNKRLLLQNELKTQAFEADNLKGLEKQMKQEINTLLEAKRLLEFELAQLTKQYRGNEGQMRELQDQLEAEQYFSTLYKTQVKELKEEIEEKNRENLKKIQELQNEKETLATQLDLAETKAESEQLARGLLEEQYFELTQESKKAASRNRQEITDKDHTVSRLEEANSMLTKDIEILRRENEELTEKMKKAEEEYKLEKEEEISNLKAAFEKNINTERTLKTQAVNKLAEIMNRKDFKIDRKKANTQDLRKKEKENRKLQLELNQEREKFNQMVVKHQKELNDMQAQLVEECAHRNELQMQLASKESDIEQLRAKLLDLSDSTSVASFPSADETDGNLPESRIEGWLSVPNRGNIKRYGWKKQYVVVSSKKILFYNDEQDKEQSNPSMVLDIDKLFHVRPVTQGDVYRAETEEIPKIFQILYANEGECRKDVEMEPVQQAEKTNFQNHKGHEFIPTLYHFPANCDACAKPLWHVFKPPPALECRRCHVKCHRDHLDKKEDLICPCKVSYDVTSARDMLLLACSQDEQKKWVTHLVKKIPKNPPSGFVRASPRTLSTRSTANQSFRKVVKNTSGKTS

What is called inhibition is how much of the control response was suppressed. High values mean a strong effect, low ones a weak effect. What is called melting point is the temperature, or range, at which the solid turns liquid. On to `O=C(Nc1ccc2[nH]ncc2c1)C1CCCN1Cc1ccccc1` (centres unmarked) [Compound 2a, 1-Benzyl-N-(1H-indazol-5-yl)pyrrolidine-2-carboxamide], for which the melting point is 200 to 201 °C. Further, the inhibition at 20 µM at ROCK I (setting [3]) was 27.2%.
In turn, `O=C(Nc1ccc2[nH]ncc2c1)[C@H]1CCCN1Cc1ccccc1` [Compound 2b, (R)-1-Benzyl-N-(1H-indazol-5-yl)pyrrolidine-2-carboxamide] returned a melting point of 199 to 201 °C. For the same molecule, at ROCK I (setting [3]), the inhibition at 20 µM amounted to 24.3%.
The molecule `O=C(Nc1ccc2[nH]ncc2c1)[C@@H]1CCCN1Cc1ccccc1` [Compound 2c, (S)-1-Benzyl-N-(1H-indazol-5-yl)pyrrolidine-2-carboxamide] registered a melting point of 202 to 203 °C. At ROCK I (setting [3]), this molecule registered an inhibition at 20 µM of 24.6%.
Molecule `Cc1ccc(CN2CCCC2C(=O)Nc2ccc3[nH]ncc3c2)cc1` (centres unmarked) [Compound 2d, N-(1H-Indazol-5-yl)-1-(4-methylbenzyl)pyrrolidine-2-carboxamide] registered a melting point of 200 to 202 °C. On ROCK I (setting [3]), 20 µM produced 26.6% inhibition.
The molecule `Cc1ccc(CN2CCC[C@@H]2C(=O)Nc2ccc3[nH]ncc3c2)cc1` [Compound 2e, (R)-N-(1H-Indazol-5-yl)-1-(4-methylbenzyl)pyrrolidine-2-carboxamide] yielded a melting point of 203 to 205 °C.
For `Cc1ccc(CN2CCC[C@H]2C(=O)Nc2ccc3[nH]ncc3c2)cc1` [Compound 2f, (S)-N-(1H-Indazol-5-yl)-1-(4-methylbenzyl)pyrrolidine-2-carboxamide], the melting point is 204 to 206 °C. Also, 20 µM produced 21.3% inhibition against ROCK I (setting [3]).
Taken in the same sequence, the figures for `O=C(Nc1ccc2cn[nH]c2c1)C1CCCN1Cc1ccccc1` (centres unmarked) [Compound 3a, 1-Benzyl-N-(1H-indazol-6-yl)pyrrolidine-2-carboxamide] were 195 to 196 °C and 16%.
As to `O=C(Nc1ccc2cn[nH]c2c1)[C@H]1CCCN1Cc1ccccc1` [Compound 3b, (R)-1-Benzyl-N-(1H-indazol-6-yl)pyrrolidine-2-carboxamide], the melting point lay in the range of 192 to 193 °C. In addition, the inhibition at 20 µM at ROCK I (setting [3]) is 15%.
As to `O=C(Nc1ccc2cn[nH]c2c1)[C@@H]1CCCN1Cc1ccccc1` [Compound 3c, (S)-1-Benzyl-N-(1H-indazol-6-yl)pyrrolidine-2-carboxamide], the melting point lay in the range of 195 to 197 °C. The same molecule yielded an inhibition at 20 µM against ROCK I (setting [3]) of 23.7%.
A word on the IC50: it is the concentration that gives 50% inhibition. One may read the EC50 as the midpoint of the concentration-response curve. Read a high EC50 as a less potent agent. For `COc1ccc(CN2CCC(C(=O)Nc3ccc4[nH]ncc4c3)C2)cc1` (centres unmarked) [Compound 4c, N-(1H-Indazol-5-yl)-1-(4-methoxybenzyl)pyrrolidine-3-carboxamide], at ROCK I, the 50% inhibitory concentration (IC50) is 1.86 µM and the “ROCK I activity compared in words” value is recorded as “activity profiles superior to DL0805”. Further, the inhibition at 20 µM against ROCK I (setting [3]) turned out to be 53.3%. The molecule further returned a 50% effective concentration (EC50) with rat aortic rings [1] of 5.8 µM. In the data set on rat aortic rings [2], the half-maximal effective concentration (EC50) was found to be 5.57 µM.
`O=C(Nc1ccc2[nH]ncc2c1)C1CCN(Cc2ccc(Br)cc2)C1` (centres unmarked) [Compound 4d, 1-(4-Bromobenzyl)-N-(1H-indazol-5-yl)pyrrolidine-3-carboxamide]: the melting point was 235 to 236 °C. Also, at ROCK I, the IC50 amounted to 0.51 µM and the “ROCK I activity compared in words” value was “activity profiles superior to DL0805”. The molecule also displayed an inhibition at 20 µM at ROCK I (setting [3]) of 62.5%. Besides, the EC50 in the data set with rat aortic rings [1] worked out at 58.1 µM. The same molecule showed an EC50 with rat aortic rings [2] of 46.8 µM.
`N#Cc1ccc(CN2CCC(C(=O)Nc3ccc4[nH]ncc4c3)C2)cc1` (centres unmarked) [Compound 4f, 1-(4-Cyanobenzyl)-N-(1H-indazol-5-yl)pyrrolidine-3-carboxamide] registered a melting point of 202 to 204 °C. In addition, the inhibition at 20 µM against ROCK I (setting [3]) was determined as 24.5%.
The molecule `O=C(Nc1ccc2[nH]ncc2c1)C1CCN(Cc2ccc(F)cc2)C1` (centres unmarked) [Compound 4g, 1-(4-Fluorobenzyl)-N-(1H-indazol-5-yl)pyrrolidine-3-carboxamide] registered a melting point of 202 to 203 °C. Also, at ROCK I, the IC50 was found to be 1.41 µM and the “ROCK I activity compared in words” value was “activity profiles superior to DL0805”. This molecule displayed an inhibition at 20 µM against ROCK I (setting [3]) of 63.8%. Besides, the 50% effective concentration (EC50) with rat aortic rings [1] turned out to be 19.5 µM. Besides, a half-maximal effect with rat aortic rings [2] (EC50) was put at 8.91 µM.
The molecule `O=C(Nc1ccc2[nH]ncc2c1)[C@H]1CCN(Cc2ccccc2)C1` [Compound 4h, (S)-1-Benzyl-N-(1H-indazol-5-yl)pyrrolidine-3-carboxamide] had a melting point of 203 to 204 °C. Besides, at ROCK I, the half-maximal inhibitory concentration (IC50) was determined as 0.42 µM and the “ROCK I activity compared in words” value is on record as “activity profiles superior to DL0805”. This molecule also registered an inhibition at 20 µM on ROCK I (setting [3]) of 54.8%. Besides, it took 32.4 µM to reach a half-maximal effect in the data set on rat aortic rings [1] (EC50). Also, the EC50 with rat aortic rings [2] was over 50 µM.
Regarding `O=C(Nc1ccc2[nH]ncc2c1)[C@@H]1CCN(Cc2ccccc2)C1` [Compound 4i, (R)-1-Benzyl-N-(1H-indazol-5-yl)pyrrolidine-3-carboxamide], the melting point fell in the range of 203 to 204 °C. Moreover, the IC50 on ROCK I was 7.32 µM. Besides, on ROCK I (setting [3]), the inhibition at 20 µM stood at 73.9%. The same molecule had an EC50 in the data set on rat aortic rings [1] of 6.02 µM. This molecule yielded a concentration for a half-maximal effect (EC50) in the data set on rat aortic rings [2] of 11.5 µM.
For `O=C(Nc1ccc2[nH]ncc2c1)C1CCN(C(=O)c2ccccc2)C1` (centres unmarked) [Compound 5a, 1-Benzoyl-N-(1H-indazol-5-yl)pyrrolidine-3-carboxamide], the melting point was 211 to 213 °C. The molecule also showed an inhibition at 20 µM against ROCK I (setting [3]) of 42.5%.
`Cc1ccc(C(=O)N2CCC(C(=O)Nc3ccc4[nH]ncc4c3)C2)cc1` (centres unmarked) [Compound 5b, N-(1H-Indazol-5-yl)-1-(4-methylbenzoyl)pyrrolidine-3-carboxamide] came in with a melting point of 224 to 226 °C. In addition, on ROCK I, the half-inhibitory concentration (IC50) is 11.5 µM. This molecule also showed an inhibition at 20 µM against ROCK I (setting [3]) of 54.9%. In the data set on rat aortic rings [1], a half-maximal effect (EC50) was put at 60.6 µM. Besides, in the data set with rat aortic rings [2], a half-maximal effect (EC50) was put at 15.6 µM.
Molecule `COc1ccc(C(=O)N2CCC(C(=O)Nc3ccc4[nH]ncc4c3)C2)cc1` (centres unmarked) [Compound 5c, N-(1H-Indazol-5-yl)-1-(4-methoxybenzoyl)pyrrolidine-3-carboxamide] yielded a melting point of 242 to 244 °C. The same molecule returned an inhibition at 20 µM against ROCK I (setting [3]) of 19.1%.
Taken in the same sequence, the figures for `O=C(Nc1ccc2[nH]ncc2c1)C1CCN(C(=O)c2ccc(Br)cc2)C1` (centres unmarked) [Compound 5d, 1-(4-Bromobenzoyl)-N-(1H-indazol-5-yl)pyrrolidine-3-carboxamide] were 250 to 251 °C and 27.9%.
`O=C(Nc1ccc2[nH]ncc2c1)C1CCN(C(=O)c2ccc([N+](=O)[O-])cc2)C1` (centres unmarked) [Compound 5e, N-(1H-Indazol-5-yl)-1-(4-nitrobenzoyl)pyrrolidine-3-carboxamide] returned a melting point of 177 to 178 °C. In addition, on ROCK I (setting [3]), the inhibition at 20 µM was 45.4%.
For the molecule `O=C(Nc1ccc2[nH]ncc2c1)C1CCN(C(=O)c2ccc(Cl)cc2)C1` (centres unmarked) [Compound 5f, 1-(4-Chlorobenzoyl)-N-(1H-indazol-5-yl)pyrrolidine-3-carboxamide], the melting point was in the range of 225 to 227 °C. Also, the half-maximal inhibitory concentration (IC50) on ROCK I was found to be 7.26 µM. At ROCK I (setting [3]), the inhibition at 20 µM worked out at 55.2%. The molecule also came in with an EC50 in the data set on rat aortic rings [1] of over 50 µM. In addition, the EC50 with rat aortic rings [2] is over 50 µM.
Consider `O=S(=O)(c1cccc2cnccc12)N1CCCNCC1` [fasudil, reference compound], for which the EC50 in the data set with rat aortic rings [1] was determined as 5.47 µM; in the data set with rat aortic rings [2], 4.65 µM.
With “N-(1H-Indazol-5-yl)-1-(4-methoxybenzyl)pyrrolidine-3-carboxamide [Compound 4e]”, the “% Inhibition of ROCK I” value on ROCK I (setting [3]) turned out to be 44.7%.

For the origin of these results see publication PMC6151428, “Discovery of Novel N-Substituted Prolinamido Indazoles as Potent Rho Kinase Inhibitors and Vasorelaxation Agents” (Molecules : A Journal of Synthetic Chemistry and Natural …, 2017).
